Experimental data reported in US11952610B2, “Digital microbiology” (priority 2016, dated 2024).
≈ marks a conversion by molar mass, not a printed value. Entries after “also recorded” stand apart in the source; their conditions may differ. Where two headings read alike, the source gives them in different places. Each block holds one molecule with its values, some of them ahead of it.

How the values were obtained:
C. albicans ATCC®24433™ [1] = assay: Antifungal susceptibility testing in water-in-oil droplets, microscope reading; assay type: cell-based, Candida albicans
Method: (§1) (at 30° C. for the C. albicans).

C. albicans ATCC®24433™ [2] = details: cited from earlier work
S. aureus ATCC®29213™ [3] = assay: Antimicrobial susceptibility testing in water-in-oil droplets, microscope reading; assay type: cell-based, Staphylococcus aureus
Method: as §1

E. faecalis ATCC®29212™ [4] = assay: as above; assay type: cell-based, Enterococcus faecalis
Method: as §1

S. aureus ATCC®29213™ [5] = details: cited from earlier work
E. faecalis ATCC®29212™ [6] = details: cited from earlier work
[7] = tested on: Penicillium hirsutum ATCC 16025; assay: Inhibition of mold growth outside the droplet aqueous phase, antifungal in oil phase; assay type: cell-based; details: 0.5 mg/L in the oil phase, 48 hours
[8] = tested on: Aspergillus restrictus CECT 20807; assay: as above; assay type: cell-based; details: 150 mg/L in the oil phase, 48 hours
[9] = tested on: Escherichia coli (ATCC®25922™); assay: Antimicrobial susceptibility testing in water-in-oil droplets, microscope reading; assay type: cell-based; details: for MIC: Escherichia coli, ATCC25922
Method: as §1

E. coli ATCC®25922 = details: cited from earlier work

- Observed MIC (C. albicans ATCC®24433™ [1]; droplets at 30° C., read after 4, 6 (24) h): 2 to 4 µg/mL
Structure (SMILES): C[C@@H]1[C@H](O)[C@@H](C)/C=C/C=C/C=C/C=C/C=C/C=C/C=C/[C@H](O[C@@H]2O[C@H](C)[C@@H](O)[C@H](N)[C@@H]2O)C[C@@H]2O[C@](O)(C[C@@H](O)C[C@@H](O)[C@H](O)CC[C@@H](O)C[C@@H](O)CC(=O)O[C@H]1C)C[C@H](O)[C@H]2C(=O)O [Amphotericin B]
- Growth in % of droplets (C. albicans ATCC®24433™ [1]; 0.125 mg/L, reading time 4 h): 15-20% of
- Growth in % of droplets (C. albicans ATCC®24433™ [1]; 0.25 mg/L, reading time 4 h): 15-20% of
- Growth in % of droplets (C. albicans ATCC®24433™ [1]; 0.25 mg/L, reading time 6 h): 30-40% of the
- Growth in droplets (observation in words) (C. albicans ATCC®24433™ [1]; 0.25 mg/L, reading time 24 h): Full growth
- Growth in % of droplets (C. albicans ATCC®24433™ [1]; 0.5 mg/L, reading time 4 h): 15-20% of
- Growth in % of droplets (C. albicans ATCC®24433™ [1]; 0.5 mg/L, reading time 6 h): ~30% of
- Growth in % of droplets (C. albicans ATCC®24433™ [1]; 0.5 mg/L, reading time 24 h): ~20% of
- Growth in droplets (observation in words) (C. albicans ATCC®24433™ [1]; 1 mg/L, reading time 4 h): Limited
- Growth in droplets (observation in words) (C. albicans ATCC®24433™ [1]; 1 mg/L, reading time 6 h): Limited
- Growth in droplets (observation in words) (C. albicans ATCC®24433™ [1]; 1 mg/L, reading time 24 h): Limited
- Growth in droplets (observation in words) (C. albicans ATCC®24433™ [1]; 2 mg/L, reading time 6 h): Limited
- Growth in droplets (observation in words) (C. albicans ATCC®24433™ [1]; 2 mg/L, reading time 24 h): Limited
- Growth in droplets (observation in words) (C. albicans ATCC®24433™ [1]; 8 mg/L, reading time 24 h): 1-2 cells
- Expected MIC (CLSI) (C. albicans ATCC®24433™ [2]): 0.25 to 1 µg/mL

- MIC ([9]; droplets at 37° C., read after 4 and/or 6 h, read-out: Observed MIC): 2 to 4 µg/mL (≈ 6.19 to 12.4 µM)
Structure (SMILES): O=C(N[C@H](CO)[C@H](O)c1ccc([N+](=O)[O-])cc1)C(Cl)Cl [Chloramphenicol]
- Growth in % of droplets ([9]; 0.5 mg/L, reading time 4 h): 30-50% of droplets
- Growth in % of droplets ([9]; 1 mg/L, reading time 4 h): 20-30% of droplets
- Growth in % of droplets ([9]; 1 mg/L, reading time 6 h): 30-50% of droplets
- Growth in droplets (observation in words) ([9]; 2 mg/L, reading time 4 h): No growth
- Growth in droplets (observation in words) ([9]; 2 mg/L, reading time 6 h): Limited growth in few
- Growth in droplets (observation in words) ([9]; 4 mg/L, reading time 4 h): No growth
- Growth in droplets (observation in words) ([9]; 4 mg/L, reading time 6 h): No growth
- Growth in droplets (observation in words) ([9]; 8 mg/L, reading time 4 h): No growth
- Expected MIC (CLSI) (E. coli ATCC®25922): 2 to 8 µg/mL

- MIC ([9]; reading time 4 h, read-out: Observed MIC (4 h)): 1 µg/mL (≈ 3.44 µM)
- MIC ([9]; reading time 6 h, read-out: Observed MIC (6 h)): 2 µg/mL (≈ 6.89 µM)
Structure (SMILES): COc1cc(Cc2cnc(N)nc2N)cc(OC)c1OC [Trimethoprim]
- Growth in droplets (observation in words) ([9]; 0.125 mg/L, reading time 4 h): Limited growth in few
- Growth in droplets (observation in words) ([9]; 0.25 mg/L, reading time 4 h): Limited growth in few
- Growth in % of droplets ([9]; 0.25 mg/L, reading time 6 h): Growth in 20-30% of
- Growth in droplets (observation in words) ([9]; 0.5 mg/L, reading time 4 h): One or few small
- Growth in droplets (observation in words) ([9]; 0.5 mg/L, reading time 6 h): Limited growth in few
- Growth in droplets (observation in words) ([9]; 1 mg/L, reading time 4 h): No growth
- Growth in droplets (observation in words) ([9]; 1 mg/L, reading time 6 h): Limited growth in few
- Growth in droplets (observation in words) ([9]; 2 mg/L, reading time 4 h): No growth
- Growth in droplets (observation in words) ([9]; 2 mg/L, reading time 6 h): No growth (one small
- Expected MIC (CLSI) (E. coli ATCC®25922): 0.5 to 2 µg/mL

The remaining lines, values behind:

Structure (SMILES): CN[C@H](CC(C)C)C(=O)N[C@H]1C(=O)N[C@@H](CC(N)=O)C(=O)N[C@H]2C(=O)N[C@H]3C(=O)N[C@H](C(=O)N[C@H](C(=O)O)c4cc(O)cc(O)c4-c4cc3ccc4O)[C@H](O)c3ccc(c(Cl)c3)Oc3cc2cc(c3O[C@@H]2O[C@H](CO)[C@@H](O)[C@H](O)[C@H]2O[C@H]2C[C@](C)(N)[C@H](O)[C@H](C)O2)Oc2ccc(cc2Cl)[C@H]1O [Vancomycin]
- Growth in % of droplets (S. aureus ATCC®29213™ [3]; 0.25 mg/L, reading time 4 h): 25-50% of droplets
- Growth in % of droplets (S. aureus ATCC®29213™ [3]; 0.25 mg/L, reading time 6 h): ~50% of the droplets
- Growth in droplets (observation in words) (S. aureus ATCC®29213™ [3]; 0.5 mg/L, reading time 4 h): 1 droplet with cells
- Growth in % of droplets (S. aureus ATCC®29213™ [3]; 0.5 mg/L, reading time 6 h): ~10% of droplets
- Growth in droplets (observation in words) (S. aureus ATCC®29213™ [3]; 1 mg/L, reading time 6 h): No growth
- Growth in % of droplets (E. faecalis ATCC®29212™ [4]; 0.25 mg/L, reading time 4 h): Growth in 25-50%
- Growth in % of droplets (E. faecalis ATCC®29212™ [4]; 0.25 mg/L, reading time 6 h): Growth in 20-50%
- Growth in % of droplets (E. faecalis ATCC®29212™ [4]; 0.5 mg/L, reading time 4 h): Growth in 25-30%
- Growth in % of droplets (E. faecalis ATCC®29212™ [4]; 0.5 mg/L, reading time 6 h): ~30% of droplets
- Growth in droplets (observation in words) (E. faecalis ATCC®29212™ [4]; 1 mg/L, reading time 4 h): Limited growth in
- Growth in % of droplets (E. faecalis ATCC®29212™ [4]; 1 mg/L, reading time 6 h): Growth in 20-30%
- Growth in droplets (observation in words) (E. faecalis ATCC®29212™ [4]; 2 mg/L, reading time 4 h): No growth
- Growth in droplets (observation in words) (E. faecalis ATCC®29212™ [4]; 2 mg/L, reading time 6 h): No growth
- Expected MIC (CLSI) (S. aureus ATCC®29213™ [5]): 0.25 to 1 µg/mL
- Expected MIC (CLSI) (E. faecalis ATCC®29212™ [6]): 1 to 4 µg/mL

Structure (SMILES): C=CCOC(Cn1ccnc1)c1ccc(Cl)cc1Cl (racemic) [Imazalil, (RS)-1-[2-(allyloxy)-2-(2,4-dichlorophenyl)ethyl]-1H-imidazole]
- Mold growth outside the aqueous phase [7]: the hyphae spreading was inhibited and mold growth was confined within the droplet; also recorded: inhibition of mold growth outside the aqueous phase

Structure (SMILES): O=C1OC2(c3cc(I)c(O)c(I)c3Oc3c2cc(I)c(O)c3I)c2c(Cl)c(Cl)c(Cl)c(Cl)c21 [rose bengal, 4,5,6,7-tetrachloro-2′,4′,5′,7′-tetraiodofluorescein]
- Mold growth outside the aqueous phase [8]: the hyphae spreading was inhibited and mold growth was confined within the droplet; also recorded: inhibition of mold growth outside the aqueous phase
